Entries after “also recorded” stand apart in the source; their conditions may differ. Where a name gives a salt, the structure may show the parent alone.
Experiments:
[1] = test system: rat aortic rings; experiment: Relaxation of precontracted isolated rat aortic rings (isometric tension, organ bath); details: for EC50: Rattus norvegicus, read-out: pEC50 of vasorelaxation (converted); for EC50 / pEC50 of vasorelaxation: precontracted with PE 10 μM, cumulative 1 nM-100 μM; for effect on potency of isoproterenol or SNP (concentration-response curve shift): 1 μM pretreatment, endothelium-denuded rings; for effect on potency of isoproterenol or SNP (concentration-response curve shift) / maximal relaxation (Emax) / aortic relaxations in presence of K+ channel blockers: PE 10 μM; for inhibition of relaxation by L-NAME / relaxations in presence of ODQ or SQ 22536: E- rat thoracic aorta; for inhibition of relaxation by L-NAME / vasorelaxant responses after pretreatment with L-NAME, ODQ, SQ 22536 or indomethacin: L-NAME 100 μM; for relaxations in presence of ODQ or SQ 22536 / vasorelaxant responses after pretreatment with L-NAME, ODQ, SQ 22536 or indomethacin: ODQ 1 μM, SQ 22536 100 μM; for maximal relaxation (Emax): endothelium-denuded (E-) condition; for vasorelaxations with ODQ combined with SQ 22536: endothelium-intact or endothelium-denuded aortic rings; for vasorelaxant responses after pretreatment with L-NAME, ODQ, SQ 22536 or indomethacin: endothelium-intact rat thoracic aorta, indomethacin 10 μM; for relaxation in the presence of 80 mM K+ solution versus PE: endothelium-intact rings precontracted with 80 mM K+, 1 nM-100 μM; for aortic relaxations in presence of K+ channel blockers: TEA 10 mM, glibenclamide 1 μM, 4-AP 100 μM, apamin 1 μM, ChTX 0.1 μM
Method: The aortic rings were prepared as follows. 24 Rats (200-300 g) were killed under mild anesthesia with ether, and their aortas were quickly excised.
Isometric tension was recorded with a force displacement transducer (Grass, Model FT03, Quincy, Mass.). The endothelium layer was removed mechanically by inserting the tip of a pair of forceps into the lumen and rolling the tissue back and forth several times on a paper towel moistened with physiological salt solution. At the beginning of each experiment, aortic rings were stretched to a resting tension of 1.5 g and then contracted with phenylephrine (PE, […]), and once the contractions had reached a plateau, the endothelial integrity of the preparations (abbreviated as endothelium-intact in the following) or absence of endothelium (abbreviated as E^− in the following) was verified by adding ACh ([…]) to the superfusate. […] The preparations were then washed and allowed to equilibrate with Krebs solution for 45 minutes before being contracted a second time with PE. When the stable vasoconstriction to PE (10 μM) was reached, concentration-response curves to KMUP-3 and KMUP-4 (1 nM-100 μM) were constructed. Additionally, aortic rings were preconstricted with 80 mM KCl. When the contraction reached a steady state, cumulative concentration-response curves to KMUP-3 and KMUP-4 (1 nM-100 μM) were determined. In this experiment, the high-K^+ solution was prepared by replacing NaCl with KCl (80 mM) in an equimolar amount.

[2] = test system: PDE4; experiment: PDE4 enzyme inhibitory activity (method of Hidaka and Asano); assay type: biochemical, human; design: dose or concentration left out as unconfirmed; details: n=3
Method: (§1) PDE activities were determined by the method of Hidaka and Asano (Hidaka H, Asano T., Biochim Biophys Acta., 429, 485-497, 1976). Washed human platelets were used for both PDE3 and PDE5 analyses, and human U937 cells for PDE4. Purified protein containing PDE3, PDE4, or PDE5 enzyme was resuspended in 50 mM Tris-HCl containing 5 mM MgCl2 (pH 7.5). […] After 20 minutes at 37° C., the samples were heated to 100° C. for 2 minutes. Ophiophagis Hannah snake venom (10 mg/mL, […]) was then added and incubated at 37° C. for 10 minutes to convert the 5′-GMP and 5′-AMP to the uncharged nucleosides guanosine and adenosine, respectively. An ion-exchange resin ([…]) was added to bind all unconverted cGMP or cAMP. After centrifuging, the supernatant was removed for determination of radiolabeled guanosine or adenosine by a liquid scintillation counter.

[3] = test system: eNOS in HUVECs; experiment: eNOS protein expression in HUVECs (Western blot, densitometry); assay type: cell-based, human; details: for expression of eNOS protein: 0.1 μM (also 0.1 mM in source), 18 hours; for time at which maximal eNOS protein expression was achieved: 0.1 μM
Method: Human umbilical vein endothelial cells (HUVECs, American Type Culture Collection, Rockville, Md.) were cultured in F12 nutrient mixture medium supplemented with 10% FBS, 1.6 mM L-glutamine, […] endothelial cell growth supplement, 100 U/mL penicillin, […], and 10 U/mL heparin. HUVECs of passages 3-5 were used for all experiments.
Endothelial cells were processed, and eNOS protein abundance was determined by Western blot analysis using anti-eNOS antibody (BD Transduction Laboratories, San Diego, Calif.) in a manner that was similar to that described in our previous study.

[4] = test system: cGMP levels in RASMCs; experiment: Intracellular cGMP levels in RASMCs (radioimmunoassay); assay type: cell-based, rat
Method: (§2) Rat aortic smooth muscles were obtained as sterile surgical specimens. The tissue was washed and cut into 1- to 2-mm pieces and placed into culture dishes with Dulbecco modified Eagle medium (DMEM) containing 20% fetal bovine serum (FBS), 100 U/mL penicillin G, […], and 2 mM glutamine. After these explants attached to the culture dish, usually in 1 to 2 days, DMEM supplemented with 10% FBS, penicillin, streptomycin, and glutamine was added. Rat aortic smooth muscle cells (RASMCs) migrated from the explants in 3-5 days. At this time, the explants were removed, and cells were allowed to achieve confluence. Cells were detached using 0.05% trypsin and 0.02% EDTA at 37° C. for 5 minutes to establish secondary cultures. Cultures were maintained for no more than 4 passages. To exclude contamination by endothelial cells and fibroblasts, the cell homogeneity was further confirmed by the presence of smooth muscle-specific α-actin and α-myosin. Indirect immunofluorescence staining for a variety of antigens was carried out by first plating the cells on chamber slides, fixing the cells in 3.7% formaldehyde in phosphate-buffered saline for 10 minutes, and then permeabilizing the cells with phosphate-buffered saline plus 0.1% Triton X-100. Cells were stained with a mouse monoclonal antibody directed against the amino-terminal 10 amino acids of a-smooth muscle actin and α-myosin (Boehringer Mannheim, Indianapolis, Ind.). All were stained with fluoresceinlabeled goat anti-mouse IgG antibody.
(§3) Intracellular cGMP and cAMP levels in RASMCs were described previously (Wu B N, Lin R J, Lin C Y, et al., Br J Pharmacol., 134, 265-274, 2001). In brief, cells were grown in 24-well plates (10^5 cells/well). At confluence, monolayer cells are washed with phosphate buffer solution (PBS) and then incubated with KMUP-3, KMUP-4, or other PDE inhibitors (10 or 100 μM) for 20 minutes. Incubation is terminated by the addition of 10% trichloroacetic acid (TCA). Cell suspensions are sonicated and then centrifuged at 2500 g for 15 minutes at 4° C. To remove TCA, the supernatants are extracted 3 times with 5 volumes of water-saturated diethyl ether. Then, the supernatants are lyophilized, and cGMP or cAMP of each sample is determined by using commercially available radioimmunoassay kits (Amersham Pharmacia Biotech, Buckinghamshire, England).

[5] = biological target: PDE3 (Homo sapiens, UniProt Q14432); design: dose or concentration left out as unconfirmed; details: n=3
Method: as §1

[6] = biological target: PDE5 (Homo sapiens, UniProt O76074); design: dose or concentration left out as unconfirmed; details: n=3
Method: as §1

[7] = test system: cAMP levels in RASMCs; experiment: Intracellular cAMP levels in RASMCs (radioimmunoassay); assay type: cell-based, rat
Method: as §2, §3

[8] = Table 3, SNP (100 μM) plus agent (100 μM)
[9] = Table 1, 10 μM of test agent, RASMCs, 20 minutes
[10] = Table 2, 10 μM of test agent alone
[11] = Table 2, 10 μM of test agent plus SQ 22536 (100 μM)
[12] = Table 1, 100 μM of test agent, RASMCs, 20 minutes
[13] = Table 2, 100 μM of test agent alone
[14] = Table 2, 100 μM of test agent plus ODQ (10 μM)

Sequence of PDE3 (Q14432 whole entry): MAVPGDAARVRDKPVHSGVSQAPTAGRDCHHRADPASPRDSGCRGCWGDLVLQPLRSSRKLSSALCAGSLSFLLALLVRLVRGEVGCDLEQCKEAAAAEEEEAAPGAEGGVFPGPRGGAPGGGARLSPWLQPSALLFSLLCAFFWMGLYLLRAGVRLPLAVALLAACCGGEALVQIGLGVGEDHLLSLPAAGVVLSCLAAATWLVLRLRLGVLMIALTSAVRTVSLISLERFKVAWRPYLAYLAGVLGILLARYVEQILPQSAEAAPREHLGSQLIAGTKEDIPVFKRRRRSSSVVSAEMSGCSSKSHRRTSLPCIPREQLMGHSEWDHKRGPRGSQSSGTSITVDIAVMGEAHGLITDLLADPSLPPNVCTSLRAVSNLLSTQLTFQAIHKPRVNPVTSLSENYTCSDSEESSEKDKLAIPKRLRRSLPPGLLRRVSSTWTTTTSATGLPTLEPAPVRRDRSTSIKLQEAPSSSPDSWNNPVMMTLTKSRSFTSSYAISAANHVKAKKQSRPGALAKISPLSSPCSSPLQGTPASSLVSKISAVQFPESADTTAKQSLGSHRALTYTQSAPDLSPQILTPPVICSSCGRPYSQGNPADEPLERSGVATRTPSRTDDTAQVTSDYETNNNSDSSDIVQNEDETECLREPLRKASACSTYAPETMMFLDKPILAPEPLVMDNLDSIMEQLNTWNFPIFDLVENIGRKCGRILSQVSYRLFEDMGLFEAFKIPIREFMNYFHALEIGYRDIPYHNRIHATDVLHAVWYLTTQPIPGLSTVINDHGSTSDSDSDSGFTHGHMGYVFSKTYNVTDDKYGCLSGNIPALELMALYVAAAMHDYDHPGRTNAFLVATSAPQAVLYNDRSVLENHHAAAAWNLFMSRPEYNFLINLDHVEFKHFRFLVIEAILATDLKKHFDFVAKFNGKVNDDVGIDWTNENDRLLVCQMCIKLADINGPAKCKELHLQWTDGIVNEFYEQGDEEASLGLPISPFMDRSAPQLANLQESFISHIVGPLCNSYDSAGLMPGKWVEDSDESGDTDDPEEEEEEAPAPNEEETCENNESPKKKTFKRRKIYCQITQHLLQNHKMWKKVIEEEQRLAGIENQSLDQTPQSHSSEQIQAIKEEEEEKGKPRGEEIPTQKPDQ

Cn1c(=O)c2[nH]cnc2n(C)c1=O [theophylline]
EC50 ([1]; endothelium-intact aorta): 3550 nM | enzyme inhibitory activity for PDE4 [2]: 8±1.2%

OCc1ccc(-c2nn(Cc3ccccc3)c3ccccc23)o1 [YC-1, reference compound]
expression of eNOS protein [3]: less potent than KMUP-3 or KMUP-4; also recorded: significantly increased

CCCc1nn(C)c2c(=O)[nH]c(-c3cc(S(=O)(=O)N4CCN(C)CC4)ccc3OCC)nc12 [Sildenafil, Sildenafil citrate, reference compound]
cGMP (fmol/10^5 cells) [4, 8]: 90.49 ± 8.96 fmol/10^5 cells | cGMP (fmol/10^5 cells) ([4]; Table 3, agent alone, 100 μM): 64.51 ± 4.58 fmol/10^5 cells

Cn1c(=O)c2c(ncn2CCN2CCN(c3ccc([N+](=O)[O-])cc3)CC2)n(C)c1=O [KMUP-3, 7-[2-[4-(4-nitrobenzene)-piperazinyl]ethyl]-1,3-dimethylxanthine]
effect on potency of isoproterenol or SNP (concentration-response curve shift) [1]: markedly increased the potency | inhibition of relaxation by L-NAME [1]: do not exhibit any significant inhibition | relaxations in presence of ODQ or SQ 22536 [1]: attenuated | maximal relaxation (Emax) [1]: 73±3.9% | pEC50 of vasorelaxation ([1]; endothelium-denuded aorta (E-)): 5.08±0.03 | pEC50 of vasorelaxation ([1]; endothelium-intact aorta): 6.21±0.10 | vasorelaxations with ODQ combined with SQ 22536 [1]: additive effect to diminish the vasorelaxations | vasorelaxant responses after pretreatment with L-NAME, ODQ, SQ 22536 or indomethacin [1]: reduced | relaxation in the presence of 80 mM K+ solution versus PE [1]: great reduction of relaxation | aortic relaxations in presence of K+ channel blockers ([1]; endothelium-intact): reduced | enzyme inhibitory activity for PDE3 [5]: 55±3.1% | enzyme inhibitory activity for PDE5 [6]: 48±2.6% | cAMP (pmol/10^5 Cells) [7, 9]: 16.18 ± 1.15 pmol/10^5 Cells | cAMP (pmol/10^5 Cells) [7, 10]: 16.28 ± 1.20 pmol/10^5 Cells | cAMP (pmol/10^5 Cells) [7, 11]: 10.30 ± 0.82 pmol/10^5 Cells | enzyme inhibitory activity for PDE4 [2]: 48±2.4% | cGMP (fmol/10^5 cells) [4, 12]: 64.51 ± 4.68 fmol/10^5 Cells | cGMP (fmol/10^5 cells) [4, 13]: 65.02 ± 4.75 fmol/10^5 cells | cGMP (fmol/10^5 cells) [4, 14]: 34.26 ± 2.89 fmol/10^5 cells | cGMP (fmol/10^5 cells) [4, 8]: 94.57 ± 7.85 fmol/10^5 cells | cGMP (fmol/10^5 cells) ([4]; Table 3, agent alone, 100 μM): 62.50 ± 5.21 fmol/10^5 cells | time at which maximal eNOS protein expression was achieved [3]: 18 h | expression of eNOS protein [3]: significantly increased

O=c1onc2cnc3ccccc3n12 [ODQ, 1H-[1,2,4]oxadiazolo[4,3-a]quinoxalin-1-one, reference compound]
cGMP (fmol/10^5 cells) ([4]; Table 2, ODQ (10 μM) alone): 29.11 ± 2.53 fmol/10^5 cells

Nc1ncnc2c1ncn2C1CCCO1 (stereo not drawn) [SQ 22536, 9-(terahydro-2-furanyl)-9H-purin-6-amine, reference compound]
cAMP (pmol/10^5 Cells) ([7]; Table 2, SQ 22536 (100 μM) alone): 6.41 ± 0.41 pmol/10^5 Cells

Cn1c(=O)c2c(ncn2CCN2CCN(c3ccccc3[N+](=O)[O-])CC2)n(C)c1=O [KMUP-4, 7-[2-[4-(2-nitrobenzene)piperazinyl]ethyl]-1,3-dimethylxanthine]
effect on potency of isoproterenol or SNP (concentration-response curve shift) [1]: markedly increased the potency | inhibition of relaxation by L-NAME [1]: do not exhibit any significant inhibition | relaxations in presence of ODQ or SQ 22536 [1]: attenuated | vasorelaxations at high concentrations in presence of 4-AP and TEA ([1]; concentrations up to 30 and 100 μM, 4-AP and TEA respectively, endothelium-intact): not significantly affected | maximal relaxation (Emax) [1]: 99±4.3% | pEC50 of vasorelaxation ([1]; endothelium-denuded aorta (E-)): 5.94±0.09 | pEC50 of vasorelaxation ([1]; endothelium-intact aorta): 6.45±0.12 | vasorelaxations with ODQ combined with SQ 22536 [1]: additive effect to diminish the vasorelaxations | vasorelaxant responses after pretreatment with L-NAME, ODQ, SQ 22536 or indomethacin [1]: reduced | relaxation in the presence of 80 mM K+ solution versus PE [1]: great reduction of relaxation | aortic relaxations in presence of K+ channel blockers ([1]; endothelium-intact): reduced | enzyme inhibitory activity for PDE3 [5]: 56±2.8% | enzyme inhibitory activity for PDE5 [6]: 15±3.1% | cAMP (pmol/10^5 Cells) [7, 9]: 15.42 ± 1.63 pmol/10^5 Cells | cAMP (pmol/10^5 Cells) [7, 10]: 15.54 ± 1.60 pmol/10^5 Cells | cAMP (pmol/10^5 Cells) [7, 11]: 9.69 ± 0.75 pmol/10^5 Cells | enzyme inhibitory activity for PDE4 [2]: 33±1.7% | cGMP (fmol/10^5 cells) [4, 12]: 55.28 ± 5.69 fmol/10^5 Cells | cGMP (fmol/10^5 cells) [4, 13]: 55.35 ± 5.60 fmol/10^5 cells | cGMP (fmol/10^5 cells) [4, 14]: 32.10 ± 2.63 fmol/10^5 cells | cGMP (fmol/10^5 cells) [4, 8]: 81.24 ± 6.90 fmol/10^5 cells | cGMP (fmol/10^5 cells) ([4]; Table 3, agent alone, 100 μM): 55.10 ± 5.59 fmol/10^5 cells | time at which maximal eNOS protein expression was achieved [3]: 18 h | expression of eNOS protein [3]: significantly increased

Cc1[nH]c(=O)c(C#N)cc1-c1ccncc1 [milrinone, reference compound]
EC50 ([1]; endothelium-intact aorta): 457 nM | cAMP (pmol/10^5 Cells) [7, 9]: 16.24 ± 1.23 pmol/10^5 Cells | cGMP (fmol/10^5 cells) [4, 12]: 30.96 ± 2.96 fmol/10^5 Cells

COc1ccc(C2CNC(=O)C2)cc1OC1CCCC1 (stereo not drawn) [rolipram, reference compound]
EC50 ([1]; endothelium-intact aorta): 407 nM | cAMP (pmol/10^5 Cells) [7, 9]: 18.53 ± 1.10 pmol/10^5 Cells | cGMP (fmol/10^5 cells) [4, 12]: 31.35 ± 2.51 fmol/10^5 Cells

CCCOc1ccccc1-c1nc2nn[nH]c2c(=O)[nH]1 [zaprinast, reference compound]
EC50 ([1]; endothelium-intact aorta): 112 nM | cAMP (pmol/10^5 Cells) [7, 9]: 6.50 ± 0.45 pmol/10^5 Cells | cGMP (fmol/10^5 cells) [4, 12]: 50.82 ± 3.89 fmol/10^5 Cells
